The values that follow come from patent US6388174B1, “Gene encoding α-subunit of rice anthranilate synthase and DNA relating thereto” (Hokko Chemical Industry Co., Ltd., priority 1997, dated 2002).

The test system of experiment [1] is rice callus cells. As to the kind of experiment: Selection of transformed rice callus cells and plants, Agrobacterium method (vector pUb-OSASA1D). Type of experiment: cell-based, rice (variety: Nihonbare). How it is done:
Preparation of Agrobacterium bacterium was carried out in the same manner as in Example 3(4) using the recombinant vector pUb-OSASA1D mentioned in the above (1). Preparation of rice callus cells was carried out in the same manner as in Example 3(5). And, gene introduction into the rice callus cells was carried out in the same manner as in Example 3(6).
The obtained calli as transformed with the recombinant vector were washed with sterilized water containing 500 mg/l carbenicillin, to remove the Agrobacterium bacterium. After removal of excess water, the calli (20 calli per petri dish, 500 calli in total) were transplanted to a solid medium as prepared by adding 30 g/l sucrose, 2 mg/l 2,4-PA, 500 mg/l carbenicillin, 2 g/l Gerite and 3×10^−4 M 5MT as a selective drug, to the inorganic salt composition of N6 medium. […]
(§1) After one month of cultivation, the number of the transformed calli thus selected was counted. […]
The transformed calli as selected by the above cultivation in view of their 5MT resistance were transplanted to a solid regeneration medium which was prepared by adding 30 g/l sucrose, 30 g/l sorbitol, 2 g/l casamino acid, 1 mg/l NAA, 2 mg/l BA, 4 g/l Gel lite and3×10^−4M 5MT to the inorganic salt composition of MS medium. […] The number of the transformed plants regenerated from the transformed calluses was counted. […]

Experiment [2] relates to rice callus cells. As to the kind of experiment: Selection of transformed rice callus cells and plants, direct introduction using whiskers (vector pUBdD). Type of experiment: cell-based, rice (variety: Nihonbare). How it is done: Ripe seeds of rice (variety: Nihonbare) were hulled, and the resulting seeds with coats were sterilized by immersion in a 70% ethanol solution for 60 seconds and then in a sodium hypochlorite solution containing about 1% effective chlorine for 6 minutes, followed by washing with sterilized water.
The thus sterilized rice seeds were placed on a medium as prepared by adding 30 g/l sucrose, 2 mg/l 2,4-PA as a phytohormone and 8 g/l agar to the inorganic component composition of MS medium. Incubation of seeds was carried out at 28° C. for 45 days with irradiation with light at 2000 lx for 16 hours per day, to form callus. The formed calli were cut from the albumen of the seeds, and those calli having a size of 1 mm or less were obtained in an amount of 3 ml in term of PCV (Packed Cell Volume), with using a stainless steel sieve (mesh size: 1 mm).
Separately, […] of potassium titanate whiskers (LS20, Titan Kogyo K.K.) was put into a 1.5-ml tube, and 0.5 ml of ethanol was added thereto. The mixture was allowed to stand overnight, and ethanol was evaporated completely to obtain sterilized whiskers. To this tube containing the whiskers was added 1 ml of sterilized water, followed by sufficient stirring. […]
as §1

Where [3] appears, read: 30 days on regeneration medium with selective drug (3×10^−4 M 5MT, or 50 mg/l hygromycin in control group).

For `Cc1ccc2[nH]cc(C[C@H](N)C(=O)O)c2c1` [Test Group, 5-methyltryptophan], the “Transformed Callus Cells Selected” value in the experiment on rice callus cells [1] (500 calli tested, one month on selective medium (3×10^−4 M 5MT, or 50 mg/l hygromycin in control group)) was determined as 45; in the experiment with rice callus cells [2] (2000 divided cells tested, one month on selective medium (10^−4 M 5MT, or 50 mg/l hygromycin in control group)) it was 102. Besides, the entries for the “Transformed Plants Selected” value with rice callus cells [1] (setting [3]) and in the experiment on rice callus cells [2] (setting [3]) were 43 and 85, respectively.
